From patent US12077503B2, “Substituted cyclic amides and their use as herbicides” (FMC CORPORATION, priority 2015, dated 2024)

Tests used:
Format in all cases: in vivo
Kochia (Kochia scoparia) [1] = test: Test A preemergence; conditions: Bassia scoparia, pre-emergence, 240 h, 0 to 100 scale where 0 is no effect and 100 is complete control, read-out: Kochia plant response rating
Outline: (§1)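 Ratings of 0 (no effect) to 100 (complete control) come from visual comparison with untreated controls roughly 10 d after treatment. Test chemicals, formulated in a non-phytotoxic solvent mixture with surfactant, were applied either as a preemergence directed soil spray on seeded soil or postemergence to one- to two-leaf plants 2 to 10 cm tall.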

[2] = system: barnyardgrass (Echinochloa crus-galli); test: Test A preemergence; conditions: Echinochloa crus-galli, pre-emergence, 240 h, 0 to 100 scale where 0 is no effect and 100 is complete control, read-out: Barnyardgrass plant response rating
Outline: as §1

[3] = system: giant foxtail (Setaria faberii); test: Test A preemergence; conditions: Setaria faberi, pre-emergence, 240 h, 0 to 100 scale where 0 is no effect and 100 is complete control, read-out: Foxtail, Giant plant response rating
Outline: as §1

[4] = system: pigweed (Amaranthus retroflexus); test: Test A preemergence; conditions: Amaranthus retroflexus, pre-emergence, 240 h, 0 to 100 scale where 0 is no effect and 100 is complete control, read-out: Pigweed plant response rating
[5] = system: ragweed (common ragweed, Ambrosia elatior); test: Test A preemergence; conditions: Ambrosia artemisiifolia, pre-emergence, 240 h, 0 to 100 scale where 0 is no effect and 100 is complete control, read-out: Ragweed plant response rating
Outline: as §1

[6] = system: ryegrass, Italian (Italian ryegrass, Lolium multiflorum); test: Test A preemergence; conditions: Lolium multiflorum, pre-emergence, 240 h, 0 to 100 scale where 0 is no effect and 100 is complete control, read-out: Ryegrass, Italian plant response rating
Outline: as §1

[7] = system: Galium (catchweed bedstraw, Galium aparine); test: Test A postemergence; conditions: Galium, post-emergence, 240 h, read-out: Galium plant response rating (0 to 100 scale)
Outline: as §1

Kochia (Kochia scoparia) [8] = test: Test A postemergence; conditions: Bassia scoparia, post-emergence, 240 h, read-out: Kochia plant response rating (0 to 100 scale)
Outline: as §1

[9] = system: barnyardgrass (Echinochloa crus-galli); test: Test A postemergence; conditions: Echinochloa crus-galli, post-emergence, 240 h, read-out: Barnyardgrass plant response rating (0 to 100 scale)
Outline: as §1

[10] = system: blackgrass (Alopecurus myosuroides); test: Test A postemergence; conditions: Alopecurus myosuroides, post-emergence, 240 h, read-out: Blackgrass plant response rating (0 to 100 scale)
Outline: as §1

corn (Zea mays) = test: Test A postemergence; conditions: Zea mays, post-emergence, 240 h, read-out: Corn plant response rating (0 to 100 scale)
Outline: as §1

[11] = system: giant foxtail (Setaria faberii); test: Test A postemergence; conditions: Setaria faberi, post-emergence, 240 h, read-out: Foxtail, Giant plant response rating (0 to 100 scale)
Outline: as §1

[12] = system: pigweed (Amaranthus retroflexus); test: Test A postemergence; conditions: Amaranthus retroflexus, post-emergence, 240 h, read-out: Pigweed plant response rating (0 to 100 scale)
Outline: as §1

[13] = system: ragweed (common ragweed, Ambrosia elatior); test: Test A postemergence; conditions: Ambrosia artemisiifolia, post-emergence, 240 h, read-out: Ragweed plant response rating (0 to 100 scale)
Outline: as §1

[14] = system: ryegrass, Italian (Italian ryegrass, Lolium multiflorum); test: Test A postemergence; conditions: Lolium multiflorum, post-emergence, 240 h, read-out: Ryegrass, Italian plant response rating (0 to 100 scale)
Outline: as §1

[15] = system: wheat (Triticum aestivum); test: Test A postemergence; conditions: Triticum aestivum, post-emergence, 240 h, Postemergence, 31 g ai/ha; 0 is no effect, 100 is complete control; read-out: Wheat plant response rating (0 to 100 scale)
Outline: as §1

[16] = system: barnyardgrass (Echinochloa crus-galli); test: Test B flooded paddy test; conditions: Echinochloa crus-galli, 250 g ai/ha, Flood; 0 to 100 scale where 0 is no effect and 100 is complete control; read-out: Barnyardgrass plant response rating
Outline: (§2)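 Response scored visually against untreated controls, 0 = no effect and 100 = complete control, 13–15 d after treatment in the greenhouse. Compounds added to paddy water held 3 cm above soil surface. Treatment given at 2-leaf stage.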

[17] = system: ducksalad (Heteranthera limosa); test: Test B flooded paddy test; conditions: Heteranthera limosa, 250 g ai/ha, Flood; 0 to 100 scale where 0 is no effect and 100 is complete control; read-out: Ducksalad plant response rating
Outline: as §2

rice (Oryra sativa) = test: Test B flooded paddy test; conditions: Oryza sativa, 250 g ai/ha, Flood; 0 to 100 scale where 0 is no effect and 100 is complete control; read-out: Rice plant response rating
Outline: as §2

[18] = system: sedge, umbrella (small-flower umbrella sedge, Cyperus difformis); test: Test B flooded paddy test; conditions: Cyperus difformis, 250 g ai/ha, Flood; 0 to 100 scale where 0 is no effect and 100 is complete control; read-out: Sedge, Umbrella plant response rating
Outline: as §2

[19] = 125 g ai/ha, preemergence, visual injury rating, approximately 10 d
[20] = 125 g ai/ha, postemergence, visual injury vs untreated controls after approx. 10 d, 0 = no effect, 100 = complete control
[21] = Postemergence, 31 g ai/ha, 0 is no effect, 100 is complete control

CN1C[C@H](c2ccc(Cl)c(F)c2)[C@@H](C(=O)Nc2ccc(F)c(F)c2F)C1=O [Compound 1266]
pest or weed control at 31 g/ha (Kochia (Kochia scoparia) [1]; 31 g ai/ha, Preemergence): 40%
pest or weed control at 125 g/ha (Kochia (Kochia scoparia) [1]; [19]): 80%
pest or weed control at 31 g/ha ([2]; 31 g ai/ha, Preemergence): 80%
pest or weed control at 125 g/ha [2, 19]: 90%
pest or weed control at 31 g/ha ([3]; 31 g ai/ha, Preemergence): 90%
pest or weed control at 125 g/ha [3, 19]: 90%
pest or weed control at 31 g/ha ([4]; 31 g ai/ha, Preemergence): 20%
pest or weed control at 125 g/ha [4, 19]: 80%
pest or weed control at 31 g/ha ([5]; 31 g ai/ha, Preemergence): 20%
pest or weed control at 125 g/ha [5, 19]: 60%
pest or weed control at 31 g/ha ([6]; 31 g ai/ha, Preemergence): 0%
pest or weed control at 125 g/ha [6, 19]: 40%
pest or weed control at 125 g/ha [7, 20]: 60%
pest or weed control at 31 g/ha [7, 21]: 50%
pest or weed control at 125 g/ha (Kochia (Kochia scoparia) [8]; [20]): 70%
pest or weed control at 31 g/ha (Kochia (Kochia scoparia) [8]; [21]): 30%
pest or weed control at 125 g/ha [9, 20]: 90%
pest or weed control at 31 g/ha [9, 21]: 90%
pest or weed control at 125 g/ha [10, 20]: 60%
pest or weed control at 31 g/ha [10, 21]: 20%
plant injury at 125 g/ha (corn (Zea mays); [20]): 90%
plant injury at 31 g/ha (corn (Zea mays); [21]): 90%
pest or weed control at 125 g/ha [11, 20]: 80%
pest or weed control at 31 g/ha [11, 21]: 80%
pest or weed control at 125 g/ha [12, 20]: 70%
pest or weed control at 31 g/ha [12, 21]: 20%
pest or weed control at 125 g/ha [13, 20]: 50%
pest or weed control at 31 g/ha [13, 21]: 0%
pest or weed control at 125 g/ha [14, 20]: 70%
pest or weed control at 31 g/ha [14, 21]: 20%
plant injury at 31 g/ha [15]: 0%
pest or weed control at 250 g/ha [16]: 60%
pest or weed control at 250 g/ha [17]: 100%
pest or weed control at 250 g/ha (rice (Oryra sativa)): 50%
pest or weed control at 250 g/ha [18]: 0%
